± gives the standard deviation of the averaged measurements.
Tested on: MES-SA
Experiment: relative viability vs DMSO control (72 h) (fraction); higher = more viable cells
Outline: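 Sarcoma cell lines went into 384-well plates at densities chosen to reach 80–90% confluence. After 24 h, each well received 2.5 µl of serially diluted compound, with source plates running from 10 mM to 0.0002 mM, and the plates were kept 72 h at 37 °C, 5% CO2, alongside 0.1% DMSO vehicle and a 5 µM positive control. Relative viability was derived from ATPLite readings as percent growth and averaged over up to triplicate wells. The data were then rescaled so that 1 stands for full and 0 for none.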

Row | SMILES | relative viability (0.00017 µM) | relative viability (0.00051 µM) | relative viability (0.00152 µM) | relative viability (0.00457 µM) | relative viability (0.01372 µM) | relative viability (0.04115 µM) | relative viability (0.1235 µM) | relative viability (0.3704 µM) | relative viability (1.111 µM) | relative viability (3.333 µM) | relative viability (10 µM)
1 | COc1cc2nccc(Oc3ccc(NC(=O)Nc4cc(C)on4)c(Cl)c3)c2cc1OC [Tivozanib] | 0.914 ± 0.018 | 0.926 ± 0.051 | 0.925 ± 0.036 | 0.932 ± 0.035 | 0.94 ± 0.0096 | 0.944 ± 0.035 | 0.923 ± 0.013 | 0.955 ± 0.025 | 0.977 ± 0.021 | 0.697 ± 0.041 | 0.231 ± 0.0086
2 | C[C@]1(O)C[C@@H](c2nc(-c3ccc4ccc(-c5ccccc5)nc4c3)c3c(N)nccn32)C1 [Linsitinib] | 0.983 ± 0.02 | 0.958 ± 0.021 | 0.9582 ± 0.0041 | 0.926 ± 0.015 | 0.962 ± 0.015 | 0.943 ± 0.025 | 0.958 ± 0.035 | 0.898 ± 0.024 | 0.887 ± 0.01 | 0.784 ± 0.0085 | 0.63 ± 0.023
3 | C=CC(=O)Nc1cccc(Oc2nc(Nc3ccc(N4CCN(C)CC4)cc3)nc3ccsc23)c1 [Olmutinib] | 0.931 ± 0.038 | 0.964 ± 0.027 | 0.916 ± 0.037 | 0.937 ± 0.055 | 0.918 ± 0.036 | 0.955 ± 0.045 | 0.968 ± 0.035 | 0.954 ± 0.012 | 0.9273 ± 0.0055 | 0.751 ± 0.029 | 0.448 ± 0.025
4 | O=C(Nc1cnn2ccc(N3CCC[C@@H]3c3cc(F)ccc3F)nc12)N1CC[C@H](O)C1 [Larotrectinib] | 0.929 ± 0.024 | 0.932 ± 0.046 | 0.923 ± 0.054 | 0.896 ± 0.056 | 0.931 ± 0.022 | 0.929 ± 0.039 | 0.894 ± 0.073 | 0.897 ± 0.022 | 0.916 ± 0.027 | 0.893 ± 0.048 | 0.877 ± 0.015

— the supplement of paper PMC10883282
